In US10022354B2, “Pyrrolidine amide compounds as histone demethylase inhibitors” (GENENTECH, INC., priority 2014, dated 2018):

The compounds below were run against full length KDM5A enzyme (Homo sapiens (Human), UniProt P29375) (assay: KDM5 Enzyme Assay (KDM5A HTRF)). Conditions: 2 nM full length KDM5A, 100 nM H3K4Me3 peptide, 1 uM 2-OG, 30 min room temperature.
Assay type: biochemical
Experimental: Full length KDM5A enzyme was expressed and purified inhouse. Biotin-H3K4me3 peptide was purchased from New England Biolabs. HTRF reagents (containing Eu-labeled H3K4me1-2 antibody, and streptavidin-XL665) were purchased from Cis-Bio International. Plates were read on an Envision multi-label plate reader (Perkin Elmer).
The HTRF assay mixture contained 2 nM full length KDM5A enzyme, 100 nM H3K4Me3 peptide substrate, 1 uM 2-OG, 100 uM Fe^2+, 500 uM ascorbate. 50 mM HEPES pH 7.0 buffer, 0.01% Triton-X 100, 2 mM DTT, 0.25% DMSO at a final volume of 10 uL.
The plates were incubated at room temperature for 60 minutes and then read in the Envision plate reader.

Sequence of full length KDM5A enzyme (P29375 whole entry): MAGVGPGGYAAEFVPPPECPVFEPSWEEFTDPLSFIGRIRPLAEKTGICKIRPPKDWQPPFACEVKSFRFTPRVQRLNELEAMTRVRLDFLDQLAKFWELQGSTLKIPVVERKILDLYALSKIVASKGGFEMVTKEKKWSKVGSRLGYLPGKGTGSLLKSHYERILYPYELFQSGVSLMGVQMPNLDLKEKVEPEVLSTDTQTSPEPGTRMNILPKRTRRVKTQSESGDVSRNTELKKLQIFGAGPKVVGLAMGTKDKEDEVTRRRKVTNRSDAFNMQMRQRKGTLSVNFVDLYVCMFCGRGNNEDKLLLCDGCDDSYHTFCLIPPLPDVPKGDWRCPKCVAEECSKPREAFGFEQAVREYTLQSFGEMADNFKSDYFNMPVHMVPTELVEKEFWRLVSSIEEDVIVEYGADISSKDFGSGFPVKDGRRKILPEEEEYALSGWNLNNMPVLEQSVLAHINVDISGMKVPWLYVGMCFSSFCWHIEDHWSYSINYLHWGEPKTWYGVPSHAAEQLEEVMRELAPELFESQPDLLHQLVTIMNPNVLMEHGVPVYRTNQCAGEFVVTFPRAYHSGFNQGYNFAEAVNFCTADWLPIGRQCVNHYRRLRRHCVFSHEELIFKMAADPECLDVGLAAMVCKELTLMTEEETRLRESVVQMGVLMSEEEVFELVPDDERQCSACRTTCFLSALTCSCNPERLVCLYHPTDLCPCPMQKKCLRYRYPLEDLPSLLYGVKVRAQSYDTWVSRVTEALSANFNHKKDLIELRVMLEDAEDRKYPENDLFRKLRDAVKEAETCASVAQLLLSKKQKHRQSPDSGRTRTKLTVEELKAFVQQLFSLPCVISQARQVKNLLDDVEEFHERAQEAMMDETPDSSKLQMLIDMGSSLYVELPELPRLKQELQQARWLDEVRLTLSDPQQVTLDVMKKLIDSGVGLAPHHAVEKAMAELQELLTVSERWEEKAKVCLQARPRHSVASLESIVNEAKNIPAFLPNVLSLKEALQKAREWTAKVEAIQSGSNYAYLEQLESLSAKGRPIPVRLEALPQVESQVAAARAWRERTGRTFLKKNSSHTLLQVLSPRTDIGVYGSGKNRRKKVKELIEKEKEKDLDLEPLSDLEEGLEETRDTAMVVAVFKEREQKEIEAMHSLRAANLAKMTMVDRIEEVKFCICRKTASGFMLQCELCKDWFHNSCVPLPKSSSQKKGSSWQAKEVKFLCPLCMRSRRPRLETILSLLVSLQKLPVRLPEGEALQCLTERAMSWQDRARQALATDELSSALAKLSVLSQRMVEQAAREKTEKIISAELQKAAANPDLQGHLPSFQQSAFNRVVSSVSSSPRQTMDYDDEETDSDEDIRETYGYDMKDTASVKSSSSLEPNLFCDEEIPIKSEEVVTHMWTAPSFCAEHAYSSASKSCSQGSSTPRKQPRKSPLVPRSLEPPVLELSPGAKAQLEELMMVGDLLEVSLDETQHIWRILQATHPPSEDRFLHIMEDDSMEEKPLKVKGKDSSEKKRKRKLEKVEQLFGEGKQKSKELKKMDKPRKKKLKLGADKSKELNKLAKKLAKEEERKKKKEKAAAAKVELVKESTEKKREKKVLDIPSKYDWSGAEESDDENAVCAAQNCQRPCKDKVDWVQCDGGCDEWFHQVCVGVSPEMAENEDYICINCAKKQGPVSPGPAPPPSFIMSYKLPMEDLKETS

Structure (SMILES)	IC50 [pM]
Cc1cc(-c2cnn(C(C)C)c2)cc(C2CCN(C(=O)c3cc(C(C)C)n[nH]3)C2)n1 (stereo not shown) [Example 97]	500
COc1ccccc1-c1cc(C)nc(C2CCN(C(=O)c3cc(C(C)C)n[nH]3)C2)c1 (stereo not shown) [Example 72]	240
CCN(C(=O)c1ccccc1)C1CCN(C(=O)c2cc(C(C)C)n[nH]2)C1 (stereo not shown) [Example 148]	12000
Cc1cc(-c2ccccn2)cc(C2CCN(C(=O)c3cc(C(C)C)n[nH]3)C2)n1 (stereo not shown) [Example 6, (3-isopropyl-1H-pyrazol-5-yl)(3-(6′-methyl-[2,4′-bipyridin]-2′-yl)pyrrolidin-1-yl)methanone]	1000
Cc1cc(-c2cnn(CCO)c2)cc(C2CCN(C(=O)c3cc(C(C)C)n[nH]3)C2)n1 (stereo not shown) [Example 91]	410
CCCc1cc(C(=O)N2CCC(c3cc(-c4cnn(C)c4)cc(C)n3)C2)[nH]n1 (stereo not shown) [Example 46]	540
Cc1cc(-c2ccsc2)cc(C2CCN(C(=O)c3cc(C(C)C)n[nH]3)C2)n1 (stereo not shown) [Example 74]	220
Cc1nn(C2CCN(C(=O)c3cc(C(C)C)n[nH]3)C2)cc1-c1ccccc1 (stereo not shown) [Example 236]	320
CC(C)c1cc(C(=O)N2CCC(n3cc(N)cn3)C2)[nH]n1 (stereo not shown) [Example 38, (3-(4-amino-1H-pyrazol-1-yl)pyrrolidin-1-yl)(3-isopropyl-1H-pyrazol-5-yl)methanone]	1800
Cc1cc(-c2cnn(C)c2)cc([C@H]2CCN(C(=O)c3cc(C(C)C)n[nH]3)C2)n1 (single isomer, unassigned) [Example 1]	170
CCn1cc(-c2cc(C)nc(C3CCN(C(=O)c4cc(C(C)C)n[nH]4)C3)c2)cn1 (stereo not shown) [Example 77]	670
CC(C)c1cc(C(=O)N2CCC(n3cc(Br)c(C#N)n3)C2)[nH]n1 (stereo not shown) [Example 240]	2100
Cc1cc(-c2ccc(Cl)cc2)cc(C2CCN(C(=O)c3cc(C(C)C)n[nH]3)C2)n1 (stereo not shown) [Example 82]	160
Cc1cc(-c2ccoc2)cc(C2CCN(C(=O)c3cc(C(C)C)n[nH]3)C2)n1 (stereo not shown) [Example 70]	270
CC(C)c1cc(C(=O)N2CC[C@@H](n3cccc(C(C)C)c3=O)C2)[nH]n1 [Example 42, (R)-3-isopropyl-1-(1-(3-isopropyl-1H-pyrazole-5-carbonyl)pyrrolidin-3-yl)pyridin-2(1H)-one]	82
CC(C)c1cc(C(=O)N2CCC(c3ccn(C(C)C)c(=O)n3)C2)[nH]n1 (stereo not shown) [Example 14, 1-Isopropyl-4-(1-(3-isopropyl-1H-pyrazole-5-carbonyl)pyrrolidin-3-yl)pyrimidin-2(1H)-one]	190

Structure (SMILES)	IC50 [pM]
CC(C)c1cc(C(=O)N2CC[C@@H](n3cc4c(F)cccc4n3)C2)[nH]n1 [Example 247]	430
Cc1cc(-c2cnn(CC(F)(F)F)c2)cc(C2CCN(C(=O)c3cc(C(C)C)n[nH]3)C2)n1 (stereo not shown) [Example 90]	400
CC(C)c1cc(C(=O)N2CCC(c3cc(-c4cnn(C)c4)cc(N)n3)C2)[nH]n1 (stereo not shown) [Example 144]	130
Cc1cc(-c2cnn(C)c2)cc(C2CCN(C(=O)c3cc(C(C)(C)C)n[nH]3)C2)n1 (stereo not shown) [Example 48]	900
Cc1cccc(-c2cc(C)nc(C3CCN(C(=O)c4cc(C(C)C)n[nH]4)C3)c2)c1 (stereo not shown) [Example 61]	120
Cc1cc(NCc2ccccc2)cc(C2CCN(C(=O)c3cc(C(C)C)n[nH]3)C2)n1 (stereo not shown) [Example 11, (3-(4-(Benzylamino)-6-methylpyridin-2-yl)pyrrolidin-1-yl)(3-isopropyl-1H-pyrazol-5-yl)methanone]	11000
Cc1cc(C(=O)N2CCC(c3cc(-c4cnn(C)c4)cc(C)n3)C2)[nH]n1 (stereo not shown) [Example 44]	2700
Cc1cc(C)nc(C2CCN(C(=O)c3cc(C(C)C)n[nH]3)C2)c1 (stereo not shown) [Example 73]	1100
Cc1cc(-c2cnn(-c3ccccc3)c2)cc(C2CCN(C(=O)c3cc(C(C)C)n[nH]3)C2)n1 (stereo not shown) [Example 92]	300
Cc1ccc(-c2cc(C)nc(C3CCN(C(=O)c4cc(C(C)C)n[nH]4)C3)c2)cc1 (stereo not shown) [Example 3, (3-Isopropyl-1H-pyrazol-5-yl)(3-(6-methyl-4-(p-tolyl)pyridin-2-yl)pyrrolidin-1-yl) methanone]	220
CC(C)c1cc(C(=O)N2CCC(NC(=O)Oc3ccccc3)C2)[nH]n1 (stereo not shown) [Example 116]	2100
Cc1cc(-c2ccccc2C)cc(C2CCN(C(=O)c3cc(C(C)C)n[nH]3)C2)n1 (stereo not shown) [Example 66]	250
Cc1nn(C2CCN(C(=O)c3cc(C(C)C)n[nH]3)C2)cc1Br (stereo not shown) [Example 237]	360
Cc1cc(N2CCOCC2)cc(C2CCN(C(=O)c3cc(C(C)C)n[nH]3)C2)n1 (stereo not shown) [Example 10, (3-Isopropyl-1H-pyrazol-5-yl)(3-(6-methyl-4-morpholinopyridin-2-yl)pyrrolidin-1-yl)methanone]	14000
CC(C)c1cc(C(=O)N2CCC(n3ncc4c(F)cc(Br)cc43)C2)[nH]n1 (stereo not shown) [Example 245]	910
Cc1cc(NS(=O)(=O)c2ccccc2)cc(C2CCN(C(=O)c3cc(C(C)C)n[nH]3)C2)n1 (stereo not shown) [Example 57]	17000

Other lines, results leading:

IC50 [pM]	Structure (SMILES)
420	O=C(NC1CCN(C(=O)c2cc(C3CCCCC3)n[nH]2)C1)C1CC1 (stereo not shown) [Example 207]
250	CC(C)c1cc(C(=O)N2CCC(NC(=O)c3cccc(Cl)c3)C2)[nH]n1 (stereo not shown) [Example 110]
1600	CC(C)c1cc(C(=O)N2CCC(NC(=O)C(C)(C)C(F)(F)F)C2)[nH]n1 (stereo not shown) [Example 173]
300	CC(C)c1cc(C(=O)N2CCC(NC(=O)C3(C)COC3)C2)[nH]n1 (stereo not shown) [Example 181]
740	CC(C)(O)c1cc(C(=O)N2CCC(NC(=O)C3CC3)C2)[nH]n1 (stereo not shown) [Example 18, N-(1-(3-(2-hydroxypropan-2-yl)-1H-pyrazole-5-carbonyl)pyrrolidin-3-yl)cyclopropanecarboxamide]
110	CC(C)c1cc(C(=O)N2CC[C@H](NC(=O)[C@@H]3C[C@@H]3F)C2)[nH]n1 [Example 229]
8900	CC(C)c1cc(C(=O)N2CCC(N(C)C(=O)c3ccccc3)C2)[nH]n1 (stereo not shown) [Example 147]
2600	COC(C)c1cc(C(=O)N2CCC(NC(=O)C3CC3)C2)[nH]n1 (stereo not shown) [Example 211]
66	CC(C)c1cc(C(=O)N2CCC(NC(=O)c3ccn(C)n3)C2)[nH]n1 (stereo not shown) [Example 112]
17000	CC(C)c1cc(C(=O)N2CCC(NC(=O)C3CC(N)C3)C2)[nH]n1 (stereo not shown) [Example 167]
1500	CC(C)c1cc(C(=O)N2CCC(NC(=O)c3ccccc3OC(F)(F)F)C2)[nH]n1 (stereo not shown) [Example 142]
2700	O=C(NC1CCN(C(=O)c2cc(CCc3ccccc3)n[nH]2)C1)C1CC1 (stereo not shown) [Example 214]
11000	CC(C)c1cc(C(=O)N2CCC(NC(=O)C3CCNC3)C2)[nH]n1 (stereo not shown) [Example 119]
6100	CC(C)c1cc(C(=O)N2CCC(c3ccccn3)C2)[nH]n1 (stereo not shown) [Example 50]
490	CC(C)c1cc(C(=O)N2CCC(NC(=O)c3cc4ccccc4[nH]3)C2)[nH]n1 (stereo not shown) [Example 122]
420	COCC(=O)NC1CCN(C(=O)c2cc(C(C)C)n[nH]2)C1 (stereo not shown) [Example 127]
360	CC(C)c1cc(C(=O)N2CC[C@@H](NC(=O)C3CCO3)C2)[nH]n1 (stereo partly shown) [Example 223]
580	COCC1(C(=O)NC2CCN(C(=O)c3cc(C(C)C)n[nH]3)C2)CC1 (stereo not shown) [Example 192]
210	CCC(C)c1cc(C(=O)N2CCC(NC(=O)C3CC3)C2)[nH]n1 (stereo not shown) [Example 23, N-(1-(3-(sec-butyl)-1H-pyrazole-5-carbonyl)pyrrolidin-3-yl)cyclopropanecarboxamide]

IC50 [pM]	Structure (SMILES)
38	CCC(C)c1cc(C(=O)N2CC[C@@H](NC(=O)[C@H]3C[C@H]3F)C2)[nH]n1 (stereo partly shown) [Example 189]
83	CC(C)c1cc(C(=O)N2CCC(NC(=O)C3CCC3)C2)[nH]n1 (stereo not shown) [Example 152]
240	CC(C)c1cc(C(=O)N2CC[C@@H](NC(=O)CC#N)C2)[nH]n1 [Example 227]
140	CC(C)c1cc(C(=O)N2CCC(NC(=O)C3CC3C)C2)[nH]n1 (stereo not shown) [Example 130]
3100	CC(C)c1cc(C(=O)N2CCC(NC(=O)COc3ccccc3)C2)[nH]n1 (stereo not shown) [Example 169]
120	CC(C)c1cc(C(=O)N2CCC(NC(=O)C3CCOC3)C2)[nH]n1 (stereo not shown) [Example 132]
80	CC(C)c1cc(C(=O)N2CCC(NC(=O)c3ccc4c(ccn4C)c3)C2)[nH]n1 (stereo not shown) [Example 178]
240	CC(C)c1cc(C(=O)N2CCC(NC(=O)C3COC3)C2)[nH]n1 (stereo not shown) [Example 179]
210	CC(C)c1cc(C(=O)N2CCC(NC(=O)C3(c4ccccn4)CC3)C2)n[nH]1 (stereo not shown) [Example 140]
6200	O=C(NC1CCN(C(=O)c2c[nH]cn2)C1)C1CC1 (stereo not shown) [Example 203]
190	O=C(NC1CCN(C(=O)c2cc(C3CC3)n[nH]2)C1)C1CC1 (stereo not shown) [Example 208]
98	CC(C)c1cc(C(=O)N2CCC(NC(=O)c3ccccc3Cl)C2)[nH]n1 (stereo not shown) [Example 150]
410	CC(C)c1cc(C(=O)N2CCC(NC(=O)C3(C#N)CC3)C2)[nH]n1 (stereo not shown) [Example 193]
47	CCOc1ccccc1C(=O)NC1CCN(C(=O)c2cc(C(C)C)n[nH]2)C1 (stereo not shown) [Example 129]
140	CC(C)c1cc(C(=O)N2CC[C@H](NC(=O)[C@H]3C[C@H]3F)C2)[nH]n1 [Example 230]
75	CC(C)c1cc(C(=O)N2CCC(NC(=O)c3ccccc3F)C2)[nH]n1 (stereo not shown) [Example 155]
1200	COc1cccc(F)c1C(=O)NC1CCN(C(=O)c2cc(C(C)C)[nH]n2)C1 (stereo not shown) [Example 198]
120	COc1cccc(C(=O)NC2CCN(C(=O)c3cc(C(C)C)n[nH]3)C2)c1 (stereo not shown) [Example 159]
3300	CC(C)c1cc(C(=O)N2CCC(c3ccc(N)cn3)C2)[nH]n1 (stereo not shown) [Example 104]
